Results published in paper PMC11170969, “Photoaffinity probe‐based antimalarial target identification of artemisinin in the intraerythrocytic developmental cycle of Plasmodium falciparum” (iMeta, 2024).

Key:
PfEGF1‐α = target: T1, PfEGF1‐α (Plasmodium falciparum, UniProt Q8I0P6); assay: DARTS; competition with APP photolabelling; assay type: binding; settings: DARTS: 5 μM protein, room temperature, 2 h, pronase; competition: 10 μM ATS
T1 construct: gene PF3D7_1357000; recombinant, pET-28a(+), E. coli BL21(DE3), Ni-NTA
T1 sequence (Q8I0P6 1-443): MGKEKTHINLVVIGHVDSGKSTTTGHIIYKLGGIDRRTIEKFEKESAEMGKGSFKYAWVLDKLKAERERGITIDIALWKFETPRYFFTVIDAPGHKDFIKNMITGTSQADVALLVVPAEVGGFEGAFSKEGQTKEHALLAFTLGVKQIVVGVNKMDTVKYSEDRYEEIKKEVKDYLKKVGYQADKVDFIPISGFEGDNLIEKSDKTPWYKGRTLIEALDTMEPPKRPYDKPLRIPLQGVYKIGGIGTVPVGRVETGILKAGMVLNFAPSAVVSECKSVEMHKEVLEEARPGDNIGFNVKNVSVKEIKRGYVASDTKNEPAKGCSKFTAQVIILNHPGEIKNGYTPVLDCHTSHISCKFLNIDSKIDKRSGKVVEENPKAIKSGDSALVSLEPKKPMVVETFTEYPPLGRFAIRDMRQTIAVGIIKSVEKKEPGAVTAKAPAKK

PfGAPDH = target: T2, PfGAPDH (Plasmodium falciparum, UniProt Q8IKK7); assay: enzyme activity inhibition; assay type: biochemical; settings: binding also shown by DARTS; activity assay conditions not stated in main text; covalent Glu59 adduct suggested by MS in a separate test with hemin and ascorbate
T2 construct: gene PF3D7_1462800; recombinant, pET-28a(+), E. coli BL21(DE3), Ni-NTA

PfLDH = target: T3, PfLDH (Plasmodium falciparum, UniProt Q76NM3); assay: enzyme activity inhibition; assay type: biochemical; settings: binding also shown by DARTS; activity assay conditions not stated in main text
T3 construct: gene PF3D7_1324900; recombinant, pET-28a(+), E. coli BL21(DE3), Ni-NTA

PfOAT = target: T4, PfOAT (Plasmodium falciparum, UniProt Q6LFH8); assay: OAT activity assay kit, absorbance at […] nm; assay type: biochemical; settings: without heme activation (also tested with heme activation); 1 h preincubation; methods name the inhibitor ART, 0-80 μM
T4 construct: gene OAT; recombinant, pET-28a(+), E. coli BL21(DE3), Ni-NTA
T4 sequence (Q6LFH8 1-414): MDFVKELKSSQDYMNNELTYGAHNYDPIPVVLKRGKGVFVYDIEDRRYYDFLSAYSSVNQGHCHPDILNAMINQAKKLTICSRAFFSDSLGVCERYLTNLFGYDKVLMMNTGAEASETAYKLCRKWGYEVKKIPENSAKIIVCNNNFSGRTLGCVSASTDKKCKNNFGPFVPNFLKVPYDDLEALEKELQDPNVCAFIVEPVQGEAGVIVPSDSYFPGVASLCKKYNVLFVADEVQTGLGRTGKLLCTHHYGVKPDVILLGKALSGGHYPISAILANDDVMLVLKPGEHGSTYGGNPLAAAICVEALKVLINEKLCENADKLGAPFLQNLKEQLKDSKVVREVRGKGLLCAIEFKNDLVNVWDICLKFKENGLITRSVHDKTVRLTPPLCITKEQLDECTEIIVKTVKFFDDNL

PfTIM = target: T5, PfTIM (Plasmodium falciparum, UniProt Q7KQM0); assay: enzyme activity inhibition; assay type: biochemical; settings: binding also shown by DARTS; activity assay conditions not stated in main text
T5 construct: gene TPI; recombinant, pET-28a(+), E. coli BL21(DE3), Ni-NTA
T5 sequence (Q7KQM0 whole entry): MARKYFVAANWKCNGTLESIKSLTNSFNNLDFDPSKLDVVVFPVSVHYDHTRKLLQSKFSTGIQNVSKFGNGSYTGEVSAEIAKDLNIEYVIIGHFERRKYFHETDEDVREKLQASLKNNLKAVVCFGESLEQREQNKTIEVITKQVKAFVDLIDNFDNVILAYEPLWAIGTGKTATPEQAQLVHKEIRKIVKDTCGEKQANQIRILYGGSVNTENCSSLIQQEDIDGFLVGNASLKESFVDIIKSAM

T3 sequence (Q76NM3 1-316): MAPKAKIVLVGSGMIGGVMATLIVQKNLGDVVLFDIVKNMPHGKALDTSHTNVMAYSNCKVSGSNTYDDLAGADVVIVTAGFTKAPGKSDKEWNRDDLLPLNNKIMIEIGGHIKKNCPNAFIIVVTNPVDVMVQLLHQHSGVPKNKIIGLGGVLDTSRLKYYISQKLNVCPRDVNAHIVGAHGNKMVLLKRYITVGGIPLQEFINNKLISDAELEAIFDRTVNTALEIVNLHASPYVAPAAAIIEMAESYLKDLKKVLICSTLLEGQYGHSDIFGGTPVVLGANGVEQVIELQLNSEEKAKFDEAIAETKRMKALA
T2 sequence (Q8IKK7 entry or part of it): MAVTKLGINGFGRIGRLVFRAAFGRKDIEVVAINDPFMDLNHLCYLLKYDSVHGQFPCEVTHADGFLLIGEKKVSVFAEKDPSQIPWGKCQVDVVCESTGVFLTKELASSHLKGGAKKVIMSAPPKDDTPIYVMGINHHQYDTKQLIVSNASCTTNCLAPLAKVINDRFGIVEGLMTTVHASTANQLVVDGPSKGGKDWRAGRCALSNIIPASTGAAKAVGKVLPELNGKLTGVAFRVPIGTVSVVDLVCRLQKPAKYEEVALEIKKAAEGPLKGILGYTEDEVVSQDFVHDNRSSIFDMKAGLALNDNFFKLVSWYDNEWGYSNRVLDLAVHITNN

Structure (SMILES): C[C@H]1[C@H](OC(=O)CCC(=O)O)O[C@@H]2O[C@@]3(C)CC[C@H]4[C@H](C)CC[C@@H]1[C@@]24OO3 [ATS, artesunate]
- DARTS; competition with APP photolabelling (PfEGF1‐α): the PfEGF1‐α proteins became more resistant to proteolysis after incubation with ATS
- half-maximal inhibitory concentration (PfGAPDH): the half‐maximal inhibitory concentrations were at low micromolar concentrations
- half-maximal inhibitory concentration (PfLDH): the half‐maximal inhibitory concentrations were at low micromolar concentrations
- OAT activity assay kit, absorbance at 340 nm (PfOAT): ATS can significantly inhibit its enzyme activity in both heme‐activated and nonactivated states
- half-maximal inhibitory concentration (PfTIM): the half‐maximal inhibitory concentrations were at low micromolar concentrations
